From the supplement of paper PMC10307832

Tests used:
Experiment in all cases: relative viability (nuclei count vs DMSO), 5 days (fraction); higher = more cells survive
CX-5461 + AZD7762 = compound: Cc1cnc(CNC(=O)c2c(=O)c3ccc(N4CCCN(C)CC4)nc3n3c2sc2ccccc23)cn1 [CX-5461] + NC(=O)Nc1cc(-c2cccc(F)c2)sc1C(=O)N[C@H]1CCCNC1 [AZD7762] (partner 0.2 µM)
In short: (§1)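 A single step with final 0.05% Triton X-100, 1% formaldehyde and 1 ug/ml Hoechst fixed the cells and stained nuclei 5 days after treatment. Lung cancer cell lines in 1536-well plates had been treated by pin tool the day after seeding with one drug alone or a fixed anchor-drug dose plus five library-drug doses (not always all listed) in √10 steps, and nuclei were counted on 4× images. Relative viability is the ratio of nuclei in treated wells to nuclei in vehicle wells, taken as the median of duplicate plates.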

CX-5461 + Palbociclib = compound: Cc1cnc(CNC(=O)c2c(=O)c3ccc(N4CCCN(C)CC4)nc3n3c2sc2ccccc23)cn1 [CX-5461] + CC(=O)c1c(C)c2cnc(Nc3ccc(N4CCNCC4)cn3)nc2n(C2CCCC2)c1=O [Palbociclib] (partner 0.5 µM)
In short: as §1

IMD-0354 + Decitabine = compound: O=C(Nc1cc(C(F)(F)F)cc(C(F)(F)F)c1)c1cc(Cl)ccc1O [IMD-0354] + Nc1ncn([C@H]2C[C@H](O)[C@@H](CO)O2)c(=O)n1 [Decitabine] (partner 2 µM)
In short: as §1

IMD-0354 + Crizotinib = compound: O=C(Nc1cc(C(F)(F)F)cc(C(F)(F)F)c1)c1cc(Cl)ccc1O [IMD-0354] + C[C@@H](Oc1cc(-c2cnn(C3CCNCC3)c2)cnc1N)c1c(Cl)ccc(F)c1Cl [Crizotinib] (partner 1 µM)
In short: as §1

Cell Line	relative viability (CX-5461 + AZD7762; first compound 0.01 µM)	relative viability (CX-5461 + AZD7762; first compound 0.03162 µM)	relative viability (CX-5461 + AZD7762; first compound 0.1 µM)	relative viability (CX-5461 + AZD7762; first compound 0.3162 µM)	relative viability (CX-5461 + AZD7762; first compound 1 µM)	relative viability (CX-5461 + Palbociclib; first compound 0.01 µM)	relative viability (CX-5461 + Palbociclib; first compound 0.03162 µM)	relative viability (CX-5461 + Palbociclib; first compound 0.1 µM)	relative viability (CX-5461 + Palbociclib; first compound 0.3162 µM)	relative viability (CX-5461 + Palbociclib; first compound 1 µM)	relative viability (IMD-0354 + Decitabine; first compound 0.04 µM)	relative viability (IMD-0354 + Decitabine; first compound 0.1265 µM)	relative viability (IMD-0354 + Decitabine; first compound 0.4 µM)	relative viability (IMD-0354 + Decitabine; first compound 1.265 µM)	relative viability (IMD-0354 + Decitabine; first compound 4 µM)	relative viability (IMD-0354 + Crizotinib; first compound 0.04 µM)	relative viability (IMD-0354 + Crizotinib; first compound 0.1265 µM)	relative viability (IMD-0354 + Crizotinib; first compound 0.4 µM)	relative viability (IMD-0354 + Crizotinib; first compound 1.265 µM)	relative viability (IMD-0354 + Crizotinib; first compound 4 µM)
NCI-H2347	0.825	0.716	0.688	0.767	0.605	0.424	0.437	0.427	0.407	0.404	0.546	0.653	0.483	0.491	0.323	0.752	0.654	0.62	0.395	0.365
NCI-H1993	0.754	0.893	0.716	0.81	0.78	0.686	0.627	0.699	0.583	0.614	0.682	0.658	0.516	0.458	0.367	0.907	0.824	0.658	0.508	0.557
NCI-H322M	0.531	0.517	0.526	0.523	0.509	0.471	0.457	0.503	0.429	0.434	0.747	0.583	0.617	0.403	0.404	1.06	0.972	0.811	0.851	0.257
NCI-H838	0.971	0.941	1.01	0.698	0.696	0.231	0.23	0.224	0.212	0.253	0.482	0.443	0.345	0.243	0.272	0.912	0.776	0.424	0.561	0.279
HARA	0.318	0.234	0.361	0.202	0.294	0.24	0.227	0.331	0.228	0.253	0.5	0.665	0.399	0.189	0.251	1.05	0.921	0.53	0.158	0.208
NCI-H2087	1.22	1.42	1.44	1.43	1.13	0.179	0.224	0.258	0.254	0.268	0.258	0.276	0.188	0.111	0.0967	0.822	0.827	0.265	0.156	0.152
NCI-H1437	1.1	1.05	1.11	1.09	1.04	0.278	0.328	0.346	0.308	0.279	0.635	0.538	0.34	0.257	0.229	1.02	0.905	0.548	0.238	0.207
NCI-H1792	0.838	0.677	0.5	0.667	0.0872	0.608	0.719	0.736	0.736	0.602	0.675	0.38	0.387	0.358	0.174	1.14	0.959	0.696	0.512	0.391
ChaGo-K-1	0.976	0.909	0.758	0.478	0.698	0.965	0.95	0.927	0.933	0.899	0.509	0.508	0.435	0.511	0.198	1.16	1.26	0.788	0.398	0.433
NCI-H650	1.03	1.01	0.727	1.05	0.623	0.319	0.362	0.334	0.336	0.323	0.303	0.3	0.346	0.288	0.201	0.844	0.714	0.542	0.528	0.2
201T	0.6	0.682	0.621	0.543	0.491	0.35	0.344	0.363	0.355	0.35	0.797	0.807	0.851	0.828	0.331	1.09	1.02	0.815	1	0.389
HCC-44	1.02	1.06	0.952	0.963	0.967	0.906	1.05	0.969	0.926	0.953	0.971	0.939	0.813	0.625	0.449	0.893	0.785	0.361	0.169	0.169
H3255	0.967	0.82	0.943	0.834	0.794	0.282	0.353	0.299	0.305	0.302	0.52	0.595	0.504	0.529	0.3	0.781	0.885	0.555	0.338	0.285
NCI-H647	0.617	0.384	0.489	0.439	0.0774	0.413	0.356	0.353	0.414	0.167	0.381	0.426	0.237	0.117	0.106	1.37	1.2	0.505	0.168	0.185
NCI-H23	0.23	0.224	0.186	0.212	0.167	0.48	0.584	0.499	0.576	0.43	0.271	0.313	0.295	0.192	0.24	0.719	0.522	0.376	0.378	0.264
NCI-H2170	1.09	0.92	1.01	0.917	0.504	0.412	0.361	0.414	0.406	0.422	0.467	0.457	0.37	0.443	0.396	1.3	1.39	0.574	1.2	0.33

Cell Line	relative viability (CX-5461 + AZD7762; first compound 0.01 µM)	relative viability (CX-5461 + AZD7762; first compound 0.03162 µM)	relative viability (CX-5461 + AZD7762; first compound 0.1 µM)	relative viability (CX-5461 + AZD7762; first compound 0.3162 µM)	relative viability (CX-5461 + AZD7762; first compound 1 µM)	relative viability (CX-5461 + Palbociclib; first compound 0.01 µM)	relative viability (CX-5461 + Palbociclib; first compound 0.03162 µM)	relative viability (CX-5461 + Palbociclib; first compound 0.1 µM)	relative viability (CX-5461 + Palbociclib; first compound 0.3162 µM)	relative viability (CX-5461 + Palbociclib; first compound 1 µM)	relative viability (IMD-0354 + Decitabine; first compound 0.04 µM)	relative viability (IMD-0354 + Decitabine; first compound 0.1265 µM)	relative viability (IMD-0354 + Decitabine; first compound 0.4 µM)	relative viability (IMD-0354 + Decitabine; first compound 1.265 µM)	relative viability (IMD-0354 + Decitabine; first compound 4 µM)	relative viability (IMD-0354 + Crizotinib; first compound 0.04 µM)	relative viability (IMD-0354 + Crizotinib; first compound 0.1265 µM)	relative viability (IMD-0354 + Crizotinib; first compound 0.4 µM)	relative viability (IMD-0354 + Crizotinib; first compound 1.265 µM)	relative viability (IMD-0354 + Crizotinib; first compound 4 µM)
NCI-H1944	0.444	0.512	0.358	0.269	0.195	0.335	0.362	0.338	0.294	0.317	0.44	0.451	0.398	0.473	0.147	0.947	1.07		1.04	0.157
NCI-H460	0.627	0.513	0.295	0.563	0.046	0.221	0.0725	0.0509	0.0722	0.0229	0.401	0.561	0.183	0.0498	0.0274	0.892	0.808	0.243	0.142	0.0357
EKVX	0.778	0.687	0.763		0.45	0.399	0.396	0.406		0.298	0.294	0.316		0.36	0.155	1.01	0.993		1.07	0.246
EPLC-272H	0.208	0.25	0.215		0.259	0.309	0.322	0.324		0.352	0.372	0.341	0.362	0.337	0.288	1.04	0.787	0.67	0.822	0.225
NCI-H2126	1.1	1.05	0.981	1.05	0.903	0.351	0.351	0.358	0.351	0.365	0.526	0.59	0.641	0.594	0.306	1.03	0.997	0.878	0.6	0.322
LXF-289	1.16	1.12	1.08		0.873	0.596	0.592	0.629		0.592	0.375	0.312	0.393	0.356	0.201	0.834	0.803	0.575	0.229	0.069
NCI-H2405	0.783	0.66	0.705	0.821	0.414	0.515	0.549	0.547	0.503	0.45	0.883	0.801	0.636	0.294	0.347	0.915	0.86	0.491	0.572	0.304
NCI-H1755	0.453	0.447	0.38	0.413	0.406	0.434	0.449	0.431	0.447	0.466	0.798	0.741	0.671	0.644	0.316	0.925	0.965	0.46	0.31	0.17
HCC-78	0.862	0.695	0.601	0.596	0.614	0.503	0.453	0.444	0.508	0.429	0.714	0.619	0.583	0.6	0.426	0.317	0.323	0.251	0.37	0.189
LOU-NH91	0.787	0.758	0.74	0.475	0.693	0.516	0.557	0.513	0.439	0.478	0.834	0.722	0.448	0.223	0.243	0.754	0.732	0.538	0.345	0.287
NCI-H3122	1.06	0.946	0.936	1.03	0.607	0.192	0.191	0.175	0.169	0.186	0.46	0.455	0.408	0.469	0.227	0.298	0.29	0.281	0.202	0.167
HCC-827	0.193	0.195	0.193	0.22	0.182	0.452	0.529	0.538	0.437	0.582	0.369	0.346	0.296	0.19	0.196	1	0.881	0.736	0.498	0.263
NCI-H1975	0.792	0.729	0.737	0.847	0.425	0.788	0.553	0.665	0.826	0.382	0.389	0.409	0.36	0.2	0.21	1.15	0.959	0.546	0.211	0.192
NCI-H1651	0.48	0.491	0.328	0.588	0.143	0.455	0.517	0.536	0.513	0.526	0.667	0.638	0.528	0.156	0.147	0.765	0.87	0.575	0.609	0.128
NCI-H441	1	1.31	1.11	1.36	0.963	0.233	0.243	0.205	0.203	0.194	0.223	0.256	0.247	0.131	0.146	0.573	0.713	0.514	0.363	0.202
LCLC-103H	0.823	0.829	0.819	0.68	0.762	0.496	0.493	0.458	0.466	0.464	0.727	0.737	0.635	0.546	0.293	1.02	1.18	0.734	0.703	0.352
